In patent publication US20240294570A1, “ENZYMATICALLY FORMING INTRANUCLEAR PEPTIDE ASSEMBLIES FOR SELECTIVELY KILLING INDUCED PLURIPOTENT STEM CELLS” (BRANDEIS UNIVERSITY, priority 2021, published 2024):
Non-standard residues stand in square brackets, D forms with d. Residues, ends and D or L forms follow the SMILES beside them. *: point of attachment. pY = N[C@@H](Cc1ccc(OP(=O)(O)O)cc1)C(=O)O; NBD = O=[N+]([O-])c1ccc(*)c2nonc12; βAla = NCCC(=O)O

What was measured:
HEK293 cells = experiment: Cytotoxicity against HEK293 cells (MTT assay); type: cell-based; details: 400 μM, 2 h
Description: (§1) Cell Culture: Human induced pluripotent stem cell line A21 was generated from human normal dermal fibroblasts by using the StemRNA™-NM Reprogramming kit (Stemgent, Cat #00-0076). hiPSCs were routinely cultured and passaged on 6-well plates coated with 0.25 μg/cm^2 iMatrix-511 (Recombinant Laminin-511) (ReproCell) with NutriStem XF/FFTM medium (Biological Industries). HS-5 cell line and HEK293 cell line were purchased from American Type Culture Collection (ATCC, USA). HS-5 cells were cultured in Dulbecco's Modified Eagle Medium (DMEM) supplemented with 10% fetal bovine serum (FBS), 100 U/mL penicillin and 100 μg/mL streptomycin. HEK293 cells were cultured in Minimal Essential Medium (MEM) supplemented with 10% fetal bovine serum (FBS), 100 U/mL penicillin and 100 μg/mL streptomycin. All cells were maintained at 37° C. in a humidified atmosphere of 5% CO2.
(§2) Cell Viability of Differentiated Cells: Cytotoxicity against HS-5 cells and HEK293 cells was determined by using MTT assay. […] The absorbance of each well at 595 nm was measured by a DTX880 Multimode Detector. The results were calculated as cell viability percentage relative to untreated cells. […]

iPSCs = experiment: Cell viability of iPSCs (trypan blue); type: cell-based, human; details: 400 μM, 2 h
Description: as §1
(§3) Cell Viability of iPSC's: iPSCs were plated in 6-well plates and incubated for 24 to 48 hours, then media were replaced with fresh one (2 ml) supplemented with PBS (control) 5 (200 μM, 300 μM, and 400 μM), 7 (400 μM) or 9 (400 μM), and incubated for 2 hours. Media were removed and cells were rinsed with PBS once, fresh normal cultural media were added and incubated for 30 min. All cells were collected and stained with trypan blue, live cells were counted using Cellometer Auto 2000 (Nexcelom Bioscience). Data were obtained by from three independent wells (n=3).

[1] = Cell viability of iPSCs (trypan blue); type: cell-based, human; details: human, human induced pluripotent stem cells (iPSC line A21), 2 hours
Description: as §1, §3

HS-5 cells = experiment: Cytotoxicity against HS-5 cells (MTT assay); type: cell-based, human; details: 400 μM, 2 h
Description: as §1, §2

ALP = experiment: Dephosphorylation rate measurement (LC-MS)
Description: The reaction mixtures were analyzed with LC-MS.
Thus, the conversion of the phosphopentapeptides to their corresponding peptides was examined over time.

iPS-derived HPCs = experiment: Cell viability of iPS-derived HPCs (trypan blue); type: cell-based, human; details: 400 μM, 2 h
Description: (§4) Differentiation of Human iPSC to iPS-derived Hematopoietic Progenitor Cells (HPC's): iPSCs were differentiated into hematopoietic progenitor cells (HPCs) by using a 3D-bioreactor platform^1. HPCs released from iPSC-spheroids after 9-10 days' differentiation were collected and characterized. Hematopoietic lineage specific marker expression of harvested HPCs were analyzed by flow cytometry. About 97.6% of these HPCs were CD31+CD43+ double positive, but only about 13% are OCT4+, indicative of commitment to hematopoietic lineage. These iPS-derived HPCs were used for 5 (400 μM, 2 hr) cytotoxicity assay.
(§5) Cell Viability of iPS-derived HPC's: iPS-derived HPCs were plated in 12-well plates and incubated overnight, then media were replaced with fresh one (2 ml) supplemented with PBS (control) 5 (400 μM) incubated for 2 hours. All cells were collected and stained with trypan blue, live cells were counted using Cellometer Auto 2000 (Nexcelom Bioscience). Data were obtained by from three independent wells (n=3).

[2] = Cell viability of iPS-derived HPCs (trypan blue); type: cell-based, human; details: human, iPS-derived hematopoietic progenitor cells (HPCs), read-out: viability of the HPC cells
Description: as §4, §5

[3] = Enzymatic self-assembly in vitro, nanostructures by TEM; type: physicochemical
Description: TEM Sample Preparation: After placing 5 μL samples on 400 mesh copper grids coated with continuous thick carbon film (˜35 nm) which is glowed discharged, we washed the grid with ddH2O and UA (uranyl acetate). The sample loaded grid was stained with the UA. The residual UA was removed by filter paper and then dried in air. TEM images were obtained with Morgagni 268 transmission electron microscope.
After obtaining all the precursors, their behaviors for EISA were evaluated in vitro using transmission electron microscopes (TEM) to examine the nanostructures formed before and after the ALP catalyzed dephosphorylation of precursors 5, 7, and 9. […] The critical micelle concentration (CMC) of 5 is 86.1 μM. […] The CMC of 6 is 8.1 μM. Unlike the case of 5, dephosphorylation of 7 or 9 at 400 μM by ALP (0.5 U/mL) produces nanofibers with the diameters of 6±2 nm or 9±2 nm, whose CMC is 87.4 μM or 25.8 μM, respectively.
A key requirement for selectively eliminating iPSCs by EISA is that the L-peptide nanoribbons only form on and in iPSCs, which overexpress ALP, but not on and in the differentiated cells that express normal level of ALP. That is, L-peptide nanoribbons should only rapidly form at high level of ALP, but not at normal level of ALP. […] Thus, after assessing the level of ALP expression in iPSCs, it should be possible to optimizing the initial concentration of a peptide and the time of dephosphorylation, to promote EISA that selectively targets iPSCs.

[4] = Degradation in HS-5 cell lysate (LC-MS); details: 200 μM, 2 h of incubation

## CC(C)C[C@H](NC(=O)CCNc1ccc([N+](=O)[O-])c2nonc12)C(=O)N[C@@H](CC(C)C)C(=O)N[C@@H](CC(C)C)C(=O)N[C@@H](CC(C)C)C(=O)N[C@@H](Cc1ccc(OP(=O)(O)O)cc1)C(=O)O [compound 5, NBD-βA-LLLLpY] ({NBD-βAla}-LLLL[pY]-OH)
HEK293 cells
  cytotoxicity towards HEK293 cells: innocuous
iPSCs
  cell death of iPSCs (FIG. 8A): 93%
[1]; 200 μM
  viability at 2 h, 200 µM: 31.1 ± 3.2%
[1]; 300 μM
  viability at 2 h, 300 µM: 18.5 ± 1.5%
[1]; 400 μM
  viability at 2 h, 400 µM: 6.96 ± 1.71%
HS-5 cells
  cytotoxicity towards HS-5 cells: slight cytotoxicity
ALP; 100 μM, 0.1 U/mL ALP, time point 40 minutes
  fraction hydrolyzed by ALP: about 24%
ALP; 400 μM, 0.1 U/mL ALP
  final dephosphorylation ratio: 69.1%
ALP; 400 μM, 0.5 U/mL ALP, after 5 hours of incubation
  dephosphorylation ratio: 93.8%
ALP; 0.1 U/mL ALP, after 1 hour of incubation
  fraction turned into 6: 32.7%
ALP; 0.1 U/mL ALP, after 2 hours of incubation
  fraction turned into 6: 49.6%
ALP; alkaline phosphatase (ALP) in PBS, half-life of dephosphorylation, 100 μM, 0.5 U/mL ALP
  half-life at 100 μM: 27.3 min
ALP; alkaline phosphatase (ALP) in PBS, half-life of dephosphorylation, 200 μM, 0.5 U/mL ALP
  half-life at 200 μM: 21.6 min
ALP; alkaline phosphatase (ALP) in PBS, half-life of dephosphorylation, 400 μM, 0.1 U/mL ALP
  half-life at 400 μM: 122 min
ALP; alkaline phosphatase (ALP) in PBS, half-life of dephosphorylation, 400 μM, 0.5 U/mL ALP
  half-life at 400 μM: 30.6 min
iPS-derived HPCs
  cell survival of HPCs (FIG. 8B): 97%
[2]
  viability at 2 h, 400 µM: 96.8%
[3]; 200 μM, one-hour treatment by 0.1 U/mL ALP
  diameters of nanoparticles: 404±50 nm
[3]; 400 μM, ALP 0.5 U/mL, 37° C., 24 h
  widths of nanoribbons: 74±13 nm
[3]; 400 μM, PBS, before ALP
  diameter of short nanofibers: 9±2 nm
[4]
  stability of 5 in HS-5 lysate: All of 5 disappears
